In paper PMC5947742 (The Journal of Dermatology, 2018):

Columns and labels:
[1] = Plasma pharmacokinetics of dabrafenib, its metabolites and trametinib; type: in vivo, Japanese patients; conditions: for time by which plasma (trough) concentrations seemed to reach steady state: repeat dosing of 150 mg dabrafenib b.i.d. and 2 mg trametinib q.d.; for plasma AUC at repeat dosing (day 21) compared with single dose (day 1): AUC0-12 h for dabrafenib, AUC0-24 h for trametinib
Safety and tolerability = type: in vivo, Japanese patients

Row | SMILES | time by which plasma (trough) concentrations seemed to reach steady state [1] | plasma AUC at repeat dosing (day 21) compared with single dose (day 1) [1] | half-life relative to the dose interval (24 h) ([1]; trametinib 2 mg q.d.) | adverse event leading to discontinuation (Safety and tolerability; patient 11, phase 2) | adverse event leading to discontinuation (Safety and tolerability; patient 1, phase 1)
1 | CC(C)c1nc(-c2cccc(NS(=O)(=O)c3c(F)cccc3F)c2F)c(-c2ccnc(N)n2)s1 [GSK2167542] | ≤ 3 week | – | – | – | –
2 | CC(=O)Nc1cccc(-n2c(=O)n(C3CC3)c(=O)c3c(Nc4ccc(I)cc4F)n(C)c(=O)c(C)c32)c1 [Trametinib, trametinib] | ≤ 3 week | higher | approximately 3.5 times the dose interval | grade 3 uveitis | –
3 | CC(C)(CO)c1nc(-c2cccc(NS(=O)(=O)c3c(F)cccc3F)c2F)c(-c2ccnc(N)n2)s1 [GSK2285403] | ≤ 3 week | – | – | – | –
4 | CC(C)(C(=O)O)c1nc(-c2cccc(NS(=O)(=O)c3c(F)cccc3F)c2F)c(-c2ccnc(N)n2)s1 [GSK2298683] | ≤ 3 week | – | – | – | –
5 | CC(C)(C)c1nc(-c2cccc(NS(=O)(=O)c3c(F)cccc3F)c2F)c(-c2ccnc(N)n2)s1 [Dabrafenib, dabrafenib] | ≤ 3 week | lower | – | grade 3 uveitis | grade 3 increased blood alkaline phosphatase
